The source made the active and inactive calls.
Experiments:
[1] = molecular target: T1, ATP-dependent translocase ABCB1 (Homo sapiens, UniProt P08183); assay: inhibition of BCRP-mediated JC-1 efflux – Ig-MXP3 cells, flow cytometry, set 2, dose response (AID 504566); format: functional; conditions: read-out: EC50_MICROM_;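 note: flow cytometry median green fluorescence of retained JC-1 dye; potency of efflux pump inhibition measured as rising substrate retention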
[2] = molecular target: T1, ATP-dependent translocase ABCB1; assay: P-gp JC-1 efflux blockade concentration-response – Jurkat-DNR cells, flow cytometry, set 2, dose response (AID 504569); format: functional; conditions: read-out: EC50_MICROM_;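 note: potency of pump inhibitors that raise cellular JC-1 green fluorescence up to the nicardipine level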
Melanocortin receptor 4 = Melanocortin receptor 4 (Homo sapiens, UniProt P32245); format: functional, cell-based;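 note: Cell-based assay with luminescence read-out, confirmatory dose-response testing for agonist activity of biased ligands at MC4R; human U2OS cells with tagged receptor and beta-arrestin; potency of agonists that increase receptor coupling to beta-arrestin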
Melanocortin receptor 4, sequence (P32245 whole entry): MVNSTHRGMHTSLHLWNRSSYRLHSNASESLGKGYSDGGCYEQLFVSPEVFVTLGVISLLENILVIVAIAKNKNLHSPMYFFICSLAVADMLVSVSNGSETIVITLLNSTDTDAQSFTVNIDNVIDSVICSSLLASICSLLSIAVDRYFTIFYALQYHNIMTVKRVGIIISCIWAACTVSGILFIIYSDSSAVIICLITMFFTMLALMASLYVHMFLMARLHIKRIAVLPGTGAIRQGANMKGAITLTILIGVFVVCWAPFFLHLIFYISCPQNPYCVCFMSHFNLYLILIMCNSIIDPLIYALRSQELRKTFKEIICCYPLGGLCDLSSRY

[3] = viability of uninfected HEp-2 cells – cell-based, HTS, cytotoxicity control for RSV inhibitor project, dose response (AID 2410); format: functional; conditions: human respiratory syncytial virus
Beta Lactamase = Beta Lactamase (Pseudomonas aeruginosa, UniProt Q932Y6); assay: BLA reporter interference, concentration series – BLA reporter cells, FRET fluorescence, artefact control for NOD2-RIPK2 interaction inhibitor project, dose response (AID 651552); format: functional, cell-based
Beta Lactamase, sequence (Q932Y6 whole entry): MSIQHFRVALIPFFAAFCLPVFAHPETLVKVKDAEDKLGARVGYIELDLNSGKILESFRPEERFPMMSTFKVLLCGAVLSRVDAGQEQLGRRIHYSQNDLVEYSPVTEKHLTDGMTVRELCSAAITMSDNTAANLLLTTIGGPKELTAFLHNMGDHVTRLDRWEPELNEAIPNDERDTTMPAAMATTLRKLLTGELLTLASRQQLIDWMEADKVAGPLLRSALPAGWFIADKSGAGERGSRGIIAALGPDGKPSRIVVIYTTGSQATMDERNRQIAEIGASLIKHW

Paired box protein Pax-8 = Paired box protein Pax-8 (Homo sapiens, UniProt Q06710); assay: PAX8 transcriptional activity inhibition in RMG-I – RMG-I cells, luciferase, cherry-pick, dose response (AID 687027); format: functional, cell-based;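 note: luciferase reporter driven by Pax8 target thyroperoxidase promoter measured by SteadyGlo luminescence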
Paired box protein Pax-8, sequence (Q06710 whole entry): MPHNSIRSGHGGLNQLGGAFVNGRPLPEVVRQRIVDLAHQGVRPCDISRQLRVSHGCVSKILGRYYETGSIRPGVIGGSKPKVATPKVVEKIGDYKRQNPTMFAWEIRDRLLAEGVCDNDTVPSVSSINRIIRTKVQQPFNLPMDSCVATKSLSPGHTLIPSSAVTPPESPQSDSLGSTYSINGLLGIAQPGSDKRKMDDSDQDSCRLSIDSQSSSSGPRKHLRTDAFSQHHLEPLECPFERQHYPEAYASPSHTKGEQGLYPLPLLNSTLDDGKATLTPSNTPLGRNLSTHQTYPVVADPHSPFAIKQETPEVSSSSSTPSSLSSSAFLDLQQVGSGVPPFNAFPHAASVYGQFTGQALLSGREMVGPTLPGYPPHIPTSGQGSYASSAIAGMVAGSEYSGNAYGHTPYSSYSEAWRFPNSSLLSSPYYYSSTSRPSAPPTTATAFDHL

[4] = general cell-killing toxicity readout – plate reader, dry powder samples, cytotoxicity control for PAX8 inhibitor project, dose response (AID 743021); format: functional, cell-based
[5] = Fluorescence-based cell-based high throughput dose response assay for inhibitors of the interaction of nucleotide-binding oligomerization domain containing 2 (NOD2) and the receptor-interacting serine-threonine kinase 2 (RIPK2).; format: functional; conditions: Homo sapiens
[6] = Luminescence Cell-Based Dose Retest to Confirm Inhibitors of Cancer Stem Cells. [Related pubchem assays (depositor defined):AID2717, AID2721]; format: functional; conditions: Homo sapiens
INS1 = assay: INS-1E survival protection against cytokine death – cell-based, luminescence, retest, dose response (AID 449756); format: functional; conditions: Rattus norvegicus;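 note: cell death triggered by IL-1 beta plus TNF-alpha plus IFN-gamma mixture; protective hits raise ATP signal compared with cytokine alone wells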
[7] = molecular target: T2, Replicative DNA helicase DnaB (Mycobacterium tuberculosis, UniProt P9WMR3); assay: DnaB intein splicing inhibitors, dose response, biochemical, cell-free fluorescence (AID 449749); format: functional
T2 sequence (P9WMR3 whole entry): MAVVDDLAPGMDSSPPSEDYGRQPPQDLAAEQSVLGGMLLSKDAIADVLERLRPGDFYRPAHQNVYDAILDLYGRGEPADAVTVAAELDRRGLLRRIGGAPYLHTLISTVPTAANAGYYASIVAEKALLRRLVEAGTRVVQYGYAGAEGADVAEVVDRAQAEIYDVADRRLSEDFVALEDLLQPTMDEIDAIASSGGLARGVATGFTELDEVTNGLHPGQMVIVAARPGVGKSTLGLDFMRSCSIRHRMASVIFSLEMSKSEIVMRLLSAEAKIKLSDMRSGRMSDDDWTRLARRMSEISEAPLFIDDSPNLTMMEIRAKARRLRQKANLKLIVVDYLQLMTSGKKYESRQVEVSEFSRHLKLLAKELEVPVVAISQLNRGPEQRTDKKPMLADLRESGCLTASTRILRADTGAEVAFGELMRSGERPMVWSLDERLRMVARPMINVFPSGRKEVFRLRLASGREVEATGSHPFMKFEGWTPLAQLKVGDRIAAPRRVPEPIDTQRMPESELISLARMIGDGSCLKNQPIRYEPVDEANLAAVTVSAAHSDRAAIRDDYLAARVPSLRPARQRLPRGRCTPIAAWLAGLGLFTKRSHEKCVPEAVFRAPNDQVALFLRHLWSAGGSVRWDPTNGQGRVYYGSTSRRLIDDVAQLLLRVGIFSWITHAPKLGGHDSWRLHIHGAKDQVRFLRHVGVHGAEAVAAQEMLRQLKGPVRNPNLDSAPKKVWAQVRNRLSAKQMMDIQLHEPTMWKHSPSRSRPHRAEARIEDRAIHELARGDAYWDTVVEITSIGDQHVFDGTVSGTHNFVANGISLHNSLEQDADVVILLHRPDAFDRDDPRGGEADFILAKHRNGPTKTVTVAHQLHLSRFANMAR

[8] = molecular target: Mitochondrial peptide methionine sulfoxide reductase (Bos taurus, UniProt P54149); assay: Absorbance-based biochemical high throughput dose response assay for activators of Methionine sulfoxide reductase A (MsrA).; format: functional
Mitochondrial peptide methionine sulfoxide reductase, sequence (P54149 whole entry): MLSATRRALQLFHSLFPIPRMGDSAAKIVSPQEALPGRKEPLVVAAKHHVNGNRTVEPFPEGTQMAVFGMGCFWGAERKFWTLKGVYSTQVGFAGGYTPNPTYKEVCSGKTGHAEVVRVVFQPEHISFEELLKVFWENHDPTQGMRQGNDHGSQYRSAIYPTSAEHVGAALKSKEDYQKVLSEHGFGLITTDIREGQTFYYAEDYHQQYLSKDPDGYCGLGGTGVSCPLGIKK

[9] = alpha-synuclein stem-loop luciferase translation blockers – H4 neuroglioma cells, luminescence, confirmation (AID 1988); format: functional, cell-based
[10] = Luminescence Cell-Based Dose Response HTS to Identify Inhibitors of 5'UTR Stem-Loop Driven Prion Protein mRNA Translation in H4 Neuroglioblastoma Cells. [Related pubchem assays: 1827 (Project Summary), 1813 (Primary HTS)]; format: functional
[11] = molecular target: T3, Histone-lysine N-methyltransferase NSD2 (Homo sapiens, UniProt O96028); format: biochemical
T3 sequence (O96028 whole entry): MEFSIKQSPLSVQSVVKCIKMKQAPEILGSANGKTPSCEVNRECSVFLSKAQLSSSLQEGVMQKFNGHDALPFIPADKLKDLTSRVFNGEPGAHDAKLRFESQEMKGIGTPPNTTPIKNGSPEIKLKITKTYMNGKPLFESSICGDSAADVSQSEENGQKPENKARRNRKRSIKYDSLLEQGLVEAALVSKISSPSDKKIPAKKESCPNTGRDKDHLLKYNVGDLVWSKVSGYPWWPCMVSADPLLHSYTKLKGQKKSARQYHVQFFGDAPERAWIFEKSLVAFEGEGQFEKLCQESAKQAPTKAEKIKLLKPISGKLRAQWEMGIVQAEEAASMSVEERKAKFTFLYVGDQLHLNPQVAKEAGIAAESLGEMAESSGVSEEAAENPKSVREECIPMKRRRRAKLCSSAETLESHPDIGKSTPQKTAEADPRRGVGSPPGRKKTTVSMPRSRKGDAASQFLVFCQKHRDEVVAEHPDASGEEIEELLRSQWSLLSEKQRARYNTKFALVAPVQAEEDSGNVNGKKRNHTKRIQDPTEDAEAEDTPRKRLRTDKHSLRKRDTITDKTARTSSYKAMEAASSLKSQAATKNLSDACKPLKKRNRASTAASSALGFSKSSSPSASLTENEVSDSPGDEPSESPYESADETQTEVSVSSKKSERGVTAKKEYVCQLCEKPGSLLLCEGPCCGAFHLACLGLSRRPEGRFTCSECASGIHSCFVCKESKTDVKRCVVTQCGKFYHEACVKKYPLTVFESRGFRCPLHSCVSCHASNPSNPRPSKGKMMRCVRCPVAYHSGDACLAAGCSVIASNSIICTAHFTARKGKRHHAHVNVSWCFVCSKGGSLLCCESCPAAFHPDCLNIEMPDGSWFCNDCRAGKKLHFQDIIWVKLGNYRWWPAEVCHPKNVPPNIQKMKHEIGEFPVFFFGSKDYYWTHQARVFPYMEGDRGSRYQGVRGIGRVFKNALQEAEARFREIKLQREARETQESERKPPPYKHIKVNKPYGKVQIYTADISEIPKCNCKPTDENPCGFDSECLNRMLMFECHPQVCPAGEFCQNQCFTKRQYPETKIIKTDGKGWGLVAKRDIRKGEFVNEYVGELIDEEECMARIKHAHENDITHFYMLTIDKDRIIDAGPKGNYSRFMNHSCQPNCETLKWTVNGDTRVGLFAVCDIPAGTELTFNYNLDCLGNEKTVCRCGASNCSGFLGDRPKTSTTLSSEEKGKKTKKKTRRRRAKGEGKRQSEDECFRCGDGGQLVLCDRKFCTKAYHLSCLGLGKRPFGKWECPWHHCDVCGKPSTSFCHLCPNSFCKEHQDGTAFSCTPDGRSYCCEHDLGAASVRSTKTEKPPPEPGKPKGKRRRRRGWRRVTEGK

[12] = luciferase reporter signal suppression in cells – H4 neuroglioma cells, luminescence, dose response (AID 1990); format: functional, cell-based
Protein RecA = molecular target: T4, Protein RecA (Mycobacterium tuberculosis, UniProt P9WHJ3); assay: Fluorescence Cell-Free Homogeneous Dose Retest to Identify Inhibitors of RecA-Intein Splicing Activity. [Related pubchem assays (depositor defined):AID2097, AID2223, AID489010, AID492950]; format: functional
T4 sequence (P9WHJ3 whole entry): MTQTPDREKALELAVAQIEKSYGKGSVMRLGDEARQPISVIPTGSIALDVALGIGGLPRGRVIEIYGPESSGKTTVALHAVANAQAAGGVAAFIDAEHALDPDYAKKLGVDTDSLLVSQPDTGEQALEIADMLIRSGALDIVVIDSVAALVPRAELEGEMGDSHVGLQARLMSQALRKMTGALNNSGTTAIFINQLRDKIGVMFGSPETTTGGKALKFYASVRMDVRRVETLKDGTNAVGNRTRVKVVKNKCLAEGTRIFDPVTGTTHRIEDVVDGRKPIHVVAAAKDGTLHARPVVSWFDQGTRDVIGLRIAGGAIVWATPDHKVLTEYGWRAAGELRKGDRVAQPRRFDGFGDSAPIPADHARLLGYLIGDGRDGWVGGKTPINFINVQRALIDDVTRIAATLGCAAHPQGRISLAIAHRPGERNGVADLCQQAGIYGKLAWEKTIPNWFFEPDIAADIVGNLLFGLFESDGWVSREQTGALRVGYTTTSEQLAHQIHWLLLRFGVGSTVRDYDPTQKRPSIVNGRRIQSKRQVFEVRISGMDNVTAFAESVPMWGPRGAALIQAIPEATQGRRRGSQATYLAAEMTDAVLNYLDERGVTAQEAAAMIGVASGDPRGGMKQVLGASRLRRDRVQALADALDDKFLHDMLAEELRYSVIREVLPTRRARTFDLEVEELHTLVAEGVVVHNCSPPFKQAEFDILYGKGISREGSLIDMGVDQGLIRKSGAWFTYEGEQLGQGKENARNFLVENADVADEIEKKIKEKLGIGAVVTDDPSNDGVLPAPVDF

T1 sequence (P08183 whole entry): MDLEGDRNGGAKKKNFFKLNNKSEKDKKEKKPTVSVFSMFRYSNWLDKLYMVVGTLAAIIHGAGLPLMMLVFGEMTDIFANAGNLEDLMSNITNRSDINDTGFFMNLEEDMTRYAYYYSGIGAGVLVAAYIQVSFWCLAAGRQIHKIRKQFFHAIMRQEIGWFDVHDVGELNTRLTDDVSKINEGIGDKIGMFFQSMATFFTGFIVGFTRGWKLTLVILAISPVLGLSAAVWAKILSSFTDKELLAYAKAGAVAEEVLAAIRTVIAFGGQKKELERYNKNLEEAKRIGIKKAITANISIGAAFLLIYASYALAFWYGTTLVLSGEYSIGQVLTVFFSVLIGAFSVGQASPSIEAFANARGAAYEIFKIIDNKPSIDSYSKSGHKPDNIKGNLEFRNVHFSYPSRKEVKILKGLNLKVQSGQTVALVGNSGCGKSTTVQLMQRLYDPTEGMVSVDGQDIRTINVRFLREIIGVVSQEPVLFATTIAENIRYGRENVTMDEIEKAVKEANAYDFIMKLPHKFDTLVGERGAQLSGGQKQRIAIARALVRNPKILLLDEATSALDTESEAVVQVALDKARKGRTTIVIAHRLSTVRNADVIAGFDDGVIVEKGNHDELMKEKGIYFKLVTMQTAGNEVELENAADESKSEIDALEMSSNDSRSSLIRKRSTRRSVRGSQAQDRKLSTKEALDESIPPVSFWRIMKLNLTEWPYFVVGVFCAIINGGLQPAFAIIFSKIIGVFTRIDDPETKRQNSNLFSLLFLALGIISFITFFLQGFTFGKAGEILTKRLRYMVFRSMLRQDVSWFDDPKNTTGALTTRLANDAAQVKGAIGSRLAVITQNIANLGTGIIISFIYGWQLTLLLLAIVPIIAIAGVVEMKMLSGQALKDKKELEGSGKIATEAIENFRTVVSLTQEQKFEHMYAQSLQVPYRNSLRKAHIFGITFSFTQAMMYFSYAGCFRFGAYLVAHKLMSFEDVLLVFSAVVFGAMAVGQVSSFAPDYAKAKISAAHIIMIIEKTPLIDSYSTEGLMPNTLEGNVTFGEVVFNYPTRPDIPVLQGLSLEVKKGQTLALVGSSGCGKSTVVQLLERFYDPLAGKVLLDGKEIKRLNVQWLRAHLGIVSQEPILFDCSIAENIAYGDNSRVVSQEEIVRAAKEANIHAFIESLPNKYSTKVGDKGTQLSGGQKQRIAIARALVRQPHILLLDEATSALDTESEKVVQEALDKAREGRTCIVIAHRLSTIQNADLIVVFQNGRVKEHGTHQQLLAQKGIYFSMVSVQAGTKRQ

For `Cc1cc(N2CCN(C(=O)c3ccco3)CC2)n2nc(-c3cccc(Cl)c3)cc2n1`, the EC50 [1] was 2.24 µM (active), the EC50 [2] was 5.05 µM (inactive) and the EC50 (Melanocortin receptor 4) was > 89.2 µM (inactive). For the same compound, the CC50 [3] was 34.7 µM (active).

In the case of `CC(C)(C)[C@H](N)C(=O)N[C@H]1CCC2C3CC=C4C[C@@H](O)CC[C@]4(C)C3CC[C@@]21C` (some centres not stated), the IC50 (Beta Lactamase) is reported as 19.5 µM (inactive), the AC50 (Paired box protein Pax-8) is reported as 9.31 µM (active) and the AC50 [4] is reported as 40.7 µM (active). For the same compound, the IC50 [5] was 17.7 µM (inactive) and the AC50 [6] was 3.67 µM (active).

With `NC1=C(Br)C(=O)c2ccccc2C1=O` the AC50 (INS1) was 6.52 µM (active), the AC50 [7] was 2.95 µM (active) and the EC50 [8] was 61.9 µM (inactive). The EC50 [9] was > 120 µM (not active), the EC50 [10] was > 60 µM (not active) and the AC50 [11] was 10 µM (active). For the same compound, the EC50 [12] was > 60 µM (not active) and the EC50 (Protein RecA) was 2.99 µM (active).
